Results as given in US5194586A, “Anti-ATLA antibody binding peptides” (Kuraray Co., Ltd., priority 1989, dated 1993).
“And” between values parts separate entries of the source, which are not always exact repeats. Equal entries are not always repeated.

Tested on: anti-ATLA antibody
Test: ELISA of Example 24: single peptides and 1:1 mixture, dried stored cups
Assay type: binding, human
Settings: for OD492: listed as Ex. 9
Experimental: Each serum specimen was assayed for the presence of the anti-ATLA antibody by the following ELISA in which an absorbance was measured.
The peptide prepared in Example 1 or the peptide prepared in Reference Example 9 were each dissolved in 0.01M carbonate buffer (pH 9.5) to prepare a solution containing each peptide. In addition, a solution containing both peptides was prepared by mixing the above two solutions at a concentration ratio of 1:1 (the former:the latter). Each 100 μl of the resulting peptide solutions was added to a cup for ELISA made of polystyrene (the same as mentioned above) and the mixture was allowed to stand at 4° C. overnight so that the peptide is coated on the cup. After removing the peptide solution in these cups, to each cup was added PBS (200 μl ) containing 20% by volume of normal goat serum and the mixture was allowed to stand at room temperature for 3 hours to block non-specific protein binding sites. After removing the blocking solution in the cups, the cups were dried and stored at 4° C.
Using PBS containing 10% by volume of normal goat serum and 0.05% by volume of Tween 20 as a diluent, the diluent and each serum specimen (15 specimens of the ATLV-carrier serum and 15 specimens of the normal human serum) was mixed at a ratio of 20:1 (diluent:specimen; v/v) and each 100 μl of the resulting diluted serums was added to above each assay cup. After incubation at 37° C. for 1 hour, the cups were washed with PBS containing 0.05% by volume of Tween 20 (×3) and then with PBS (×1).
To each resulting assay cup was added PBS containing horseradish peroxidase conjugated goat anti-human IgG antibody (diluted at an optimal concentration with PBS containing 10% by volume of normal goat serum and 0.2% by volume of Tween 20; 100 μl ). After incubation at 37° C. for 30 minutes, these cups were washed with PBS containing 0.05% by volume of Tween 20 (×3) and then with PBS (×1). […] After the mixtures were allowed to stand at room temperature for 15 minutes, to each mixture was added 1N sulfuric acid (100 μl) to stop the reaction and an absorbance at 492 nm (OD492) of each reaction solution was measured.
Cutoff value was determined using the OD492 values of the fifteen normal human serums and used for determination as to whether the specimens are positive or negative for the anti-ATLA antibody. The cutoff value was calculated by the equation: cutoff value = ((mean value of OD492 values of the normal human serum) +2SD). When the presence of the anti-ATLA antibody in each serum specimen was assayed using this cutoff value, all ATLV-carrier serums were determined to be positive and all normal human serums were determined to be negative.

## Example 9: peptide (I), X is -Lys-Lys-Lys-, A is the env peptide fragment (A-3); SEQ ID NO: 14 (KKKFLNTEPSQLPPTAPPLLPHSNLDHI)
ATLV-carrier serum, individual specimens No. 1-15, diluent:specimen 20:1
  OD492: 0.873 and 0.973 and 1.405 and 0.099 and 1.623 and 1.437 and 0.137 and 0.088 and 0.111 and 1.029 and 1.071 and 1.156 and 1.061 and 0.549 and 1.478
Mean OD492 of the normal human serum + 2SD
  Cutoff value: 0.158
Mean of the fifteen normal human serums
  Mean OD492: 0.096
Normal human serum, individual specimens No. 1-15
  OD492: 0.078 and 0.062 and 0.040 and 0.089 and 0.133 and 0.103 and 0.099 and 0.083 and 0.151 and 0.065 and 0.093 and 0.097 and 0.100 and 0.094 and 0.154
